Measurements published in patent US4877776A, “K-252 compounds” (Kyowa Hakko Kogyo Co., Ltd., priority 1987, dated 1989).
Converted amounts (≈) assume the structure as drawn. Where two headings read alike, the source gives them in different places.

Key:
[1] = biological target: C-kinase (protein kinase C); assay: C-Kinase inhibitory activity test; assay type: biochemical; details: concentration at which enzyme activity was inhibited 50%
Procedure: (§1) Compound (I) obtained by the present invention was examined for C-kinase inhibitory activity and cell growth inhibitory activity by the following methods.
C-Kinase inhibitory activity test:
C-Kinase inhibitory activity of representative Compounds (I) was measured in accordance with the method of Y. Nishizuka, et al. [J. Biol. Chem., 257, 13341 (1982)]. The test was carried out on test compounds at varied concentrations, and the concentration at which the enzyme activity was inhibited 50% (IC50) was determined.

[2] = tested on: HeLaS3 cells (human uterine cervical cancer HeLa cells); assay: HeLaS3 cell growth inhibition test; assay type: cell-based; details: read-out: IC50, HeLaS3 cell growth inhibitory activity
Procedure: as §1
(§2) Cell growth inhibition tests:
(§3) MCF7 cells (4.5×10^4 cells/ml) pepared in RPMI 1640 medium containing 10% fetal calf serum, 10 μg/ml insulin and 10^-8 M estradiol are put into wells of a 96-well microtiter plate in the amount of 0.1 ml per each well. After incubation at 37° C. overnight in CO2 -incubator, 0.05 ml of a test sample appropriately diluted with the culture medium is added to each well. The cells are further cultured in CO2 -incubator, and then the culture supernatant is removed and the wells are washed once with PBS(-). Thereafter, 0.1 ml of fresh medium is added to each well, followed by culturing at 37° C. for 72 hours in CO2 -incubator. After the culture supernatant is removed, 0.1 ml of the culture medium containing 0.02% Neutral Red is added to each well, followed by culturing at 37° C. for one hour in CO2 -incubator, whereby the cells are stained. Then, the culture supernatant is removed and the cells are washed once with physiological saline. The pigment is extracted with 0.001N hydrochloric acid/30% ethanol and absorption is measured at 550 nm with a microplate reader. By comparing the absorption of intact cells with those of the cells treated with a test compound at known concentrations, the concentration of the test compound at which growth of the cells is inhibited 50% is calculated as IC50.
(2) HaLaS3 cell growth inhibition test:
HeLaS3 cells (3×10^4 cells/ml) prepared in MEM medium containing 10% fetal calf serum and 2 mM glutamine are put into wells of a 96-well microtiter plate in the amount of 0.1 ml per each well.
Thereafter, the test is carried out in the same manner as in (1).

[3] = tested on: MCF7 cells (human breast cancer cell MCF7); assay: MCF7 cell growth inhibition test; assay type: cell-based; details: read-out: IC50, MCF7 cell growth inhibitory activity
Procedure: as §1, §2
(1) MCF7 cell growth inhibition test:
as §3

[4] = tested on: COLO320DM cells (human colon adenocarcinoma cell COLO320DM); assay: COLO320DM cell growth inhibition test; assay type: cell-based; details: COLO 320DM, read-out: IC50, COLO320DM cell growth inhibitory activity
Procedure: as §1, §2
(3) COLO320DM cell growth inhibition test:
COLO320DM cells (10^5 cells/ml) prepared in RPMI 1640 medium containing 10% fetal calf serum, 100 U/ml penicillin and 100 μg/ml streptomycin are put into wells of a 96-well microtiter plate in the amount of 0.1 ml per each well. Thereafter, the test is carried out in the same manner as in (1) except that the cells are counted with a microcell counter. By comparing the number of intact cells with those of the cells treated with a test compound at known concentrations, the concentration of the test compound at which growth of the cells is inhibited 50% is calculated as IC50.

histamine release = details: in words, from other filings; cited from earlier work
[5] = in words, from other filing; cited from earlier work
C-kinase = details: in words, cited from earlier work; for inhibitory activity against C-kinase: from literature or other filings; for specificity of C-kinase inhibition: from literature
[6] = in words, from literature; cited from earlier work
[7] = HeLa S3, HeLaS3, Neutral Red, 72 hours
[8] = COLO320DM, cells counted with a microcell counter, 72 hours

Compound | IC50, C-Kinase inhibitory activity [1] [µg/mL] | inhibitory activity against C-kinase (C-kinase) | specificity of C-kinase inhibition (C-kinase) | other results
COC(=O)C1(O)CC2OC1(C)n1c3ccccc3c3c4c(c5c6ccccc6n2c5c31)C(=O)NC4O (centres unmarked) [Compound 5] | 1.2 (≈ 2.48 µM) | – | – | IC50 [2, 7]: 1.53 µg/mL (≈ 3.16 µM); IC50 ([3]; MCF7, Neutral Red, 72 hours): 0.8 µg/mL (≈ 1.65 µM); IC50 [4, 8]: 2.55 µg/mL (≈ 5.27 µM)
CCSC1NC(=O)c2c1c1c3ccccc3n3c1c1c2c2ccccc2n1C1CC(O)(CO)C3(C)O1 (centres unmarked) [Compound 7] | 0.18 (≈ 0.36 µM) | – | – | IC50 [2, 7]: 1.43 µg/mL (≈ 2.86 µM); IC50 ([3]; MCF7, Neutral Red, 72 hours): 5.08 µg/mL (≈ 10.2 µM); IC50 [4, 8]: 1 µg/mL (≈ 2 µM)
COC(=O)C1(O)CC2OC1(C)n1c3ccccc3c3c4c(c5c6ccccc6n2c5c31)C(=O)NC4 (centres unmarked) [Compound K-252] | 0.016 (≈ 0.0342 µM) | – | – | IC50 ([2]; HeLa S3, 72 h): 0.2 µg/mL (≈ 0.428 µM); IC50 ([3]; MCF7, 72 h): 0.51 µg/mL (≈ 1.09 µM); IC50 ([4]; 72 h): 0.27 µg/mL (≈ 0.578 µM); activity to inhibit histamine release (histamine release): activity to inhibit histamine release; anti-allergic activity [5]: anti-allergic activity
NCCCCCCNS(=O)(=O)c1cccc2c(Cl)cccc12 [Compound W-7, N-(6-aminohexyl)-5-chloro-1-naphthalenesulfonamide] | – | low inhibitory activity against C-kinase | low specificity | –
CC12OC(CC1(O)C(=O)O)n1c3ccccc3c3c4c(c5c6ccccc6n2c5c31)CNC4=O (centres unmarked) [KT-5556] | – | – | – | activity to inhibit histamine release (histamine release): activity to inhibit histamine release
CN[C@@H]1C[C@H]2O[C@@](C)([C@@H]1OC)n1c3ccccc3c3c4c(c5c6ccccc6n2c5c31)C(=O)NC4 [Staurosporine] | – | – | – | antibacterial activity [6]: antibacterial activity
CN(C)CCCN1c2ccccc2Sc2ccc(Cl)cc21 [chlorpromazine] | – | low inhibitory activity against C-kinase | low specificity | –
ClCCN(Cc1ccccc1)Cc1ccccc1 [dibenamine] | – | low inhibitory activity against C-kinase | low specificity | –
CCCCNc1ccc(C(=O)OCCN(C)C)cc1 [tetracaine] | – | low inhibitory activity against C-kinase | low specificity | –
CN1CCN(CCCN2c3ccccc3Sc3ccc(C(F)(F)F)cc32)CC1 [trifluoperazine] | – | low inhibitory activity against C-kinase | low specificity | –
